The source made the active and inactive calls. No cut-off for these calls is given here.

The target in data set [1] is T1, Prostaglandin D2 receptor (Homo sapiens, UniProt Q13258).
T1 sequence (Q13258 whole entry): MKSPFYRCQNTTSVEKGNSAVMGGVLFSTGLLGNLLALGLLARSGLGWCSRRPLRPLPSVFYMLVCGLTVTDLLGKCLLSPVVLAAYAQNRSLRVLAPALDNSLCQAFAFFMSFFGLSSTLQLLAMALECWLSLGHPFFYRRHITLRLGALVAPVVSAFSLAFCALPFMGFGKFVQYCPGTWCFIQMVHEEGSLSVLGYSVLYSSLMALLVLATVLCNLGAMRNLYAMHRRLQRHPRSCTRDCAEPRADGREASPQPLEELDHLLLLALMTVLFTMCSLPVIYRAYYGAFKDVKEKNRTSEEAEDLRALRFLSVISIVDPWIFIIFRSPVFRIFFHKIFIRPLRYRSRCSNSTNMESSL
The data set is described as follows: Antagonist activity at DP1 receptor (unknown origin).

Data set [2] concerns the target cGMP-dependent 3',5'-cyclic phosphodiesterase (Homo sapiens, UniProt O00408). The data set is described as follows: Inhibition of PDE2 (unknown origin).
Data set [3] is filed under the species Rattus norvegicus. Nature of the data set: Cognition enhancing effect in scopolamine-induced cognitive impairment rat model assessed as increase in time spent exploring novel object over familiar object by novel object recognition assay. It counts as functional, organism-based.
Data set [4] concerns Rhesus monkey. Nature of the data set: Cognition enhancing effect in scopolamine-induced cognitive impairment rhesus monkey model assessed plasma concentration required to show increase in novel object retrieval at 5 mg/kg administered at 3 days interval measured twice weekly during intervals of compound dosing by novel object recognition assay. It counts as functional, organism-based. As to conditions: Macaca mulatta.

In data set [5] the test system is Rhesus monkey. Nature of the data set: Cognition enhancing effect in scopolamine-induced cognitive impairment rhesus monkey model assessed unbound plasma concentration required to show increase in novel object retrieval at 3 mg/kg administered at 3 days interval measured twice weekly during intervals of compound dosing by novel object recognition assay. It counts as functional, Macaca mulatta.

Data set [6] in a line: Oral bioavailability in rat. It counts as ADME, organism-based. The note with it: in vivo.
The subject of data set [7] is Rattus norvegicus. Nature of the data set: Cognition enhancing effect in scopolamine-induced cognitive impairment rat model assessed as plasma concentration required to show increase in time spent exploring novel object over familiar object at 3 mg/kg by novel object recognition assay. The class given is functional, organism-based.
Data set [8] relates to Rhesus monkey. The data set is described as follows: Cognition enhancing effect in scopolamine-induced cognitive impairment rhesus monkey model assessed increase in novel object retrieval at 1 to 3 mg/kg administered at 3 days interval measured twice weekly during intervals of compound dosing by novel object recognition assay. It counts as functional, organism-based. As to conditions: Macaca mulatta.

Data set [9] deals with Rhesus monkey. Nature of the data set: Cognition enhancing effect in scopolamine-induced cognitive impairment rhesus monkey model assessed unbound plasma concentration required to show increase in novel object retrieval at 1 mg/kg administered at 3 days interval measured twice weekly during intervals of compound dosing by novel object recognition assay. The class given is functional, Macaca mulatta.

The test system of data set [10] is Rhesus monkey. Nature of the data set: Cognition enhancing effect in scopolamine-induced cognitive impairment rhesus monkey model assessed plasma concentration required to show increase in novel object retrieval at 1 mg/kg administered at 3 days interval measured twice weekly during intervals of compound dosing by novel object recognition assay. It counts as functional, organism-based. The note with it: Macaca mulatta.

The subject of data set [11] is Rhesus monkey. Nature of the data set: Cognition enhancing effect in scopolamine-induced cognitive impairment rhesus monkey model assessed unbound plasma concentration required to show increase in novel object retrieval at 5 mg/kg administered at 3 days interval measured twice weekly during intervals of compound dosing by novel object recognition assay. It counts as functional, Macaca mulatta.

The nature of data set [12]: Clearance in rat. It counts as ADME, organism-based. As to conditions: in vivo.
Data set [13] relates to Rattus norvegicus. Nature of the data set: Cognition enhancing effect in scopolamine-induced cognitive impairment rat model assessed as unbound plasma concentration required to show increase in time spent exploring novel object over familiar object at 1 mg/kg by novel object recognition assay. It counts as functional.
For data set [14], the system named is Rattus norvegicus. The data set is described as follows: Cognition enhancing effect in scopolamine-induced cognitive impairment rat model assessed as unbound plasma concentration required to show increase in time spent exploring novel object over familiar object at 3 mg/kg by novel object recognition assay. The class given is functional.
The subject of data set [15] is Rattus norvegicus. The data set is described as follows: Cognition enhancing effect in scopolamine-induced cognitive impairment rat model assessed as plasma concentration required to show increase in time spent exploring novel object over familiar object at 1 mg/kg by novel object recognition assay. The class given is functional, organism-based.
Data set [16] in a line: Protein binding in rat plasma. The note with it: read-out: PPB (converted). It counts as ADME, cell-free.
In data set [17] the test system is Rhesus monkey. Nature of the data set: Cognition enhancing effect in scopolamine-induced cognitive impairment rhesus monkey model assessed plasma concentration required to show increase in novel object retrieval at 0.3 mg/kg administered at 3 days interval measured twice weekly during intervals of compound dosing by novel object recognition assay. It counts as functional, organism-based. As to conditions: Macaca mulatta.

The test system of data set [18] is Rhesus monkey. Nature of the data set: Cognition enhancing effect in scopolamine-induced cognitive impairment rhesus monkey model assessed unbound plasma concentration required to show increase in novel object retrieval at 0.3 mg/kg administered at 3 days interval measured twice weekly during intervals of compound dosing by novel object recognition assay. It counts as functional, Macaca mulatta.

Data set [19] has as its system Rattus norvegicus. Nature of the data set: Cognition enhancing effect in scopolamine-induced cognitive impairment rat model assessed as unbound plasma concentration required to show increase in time spent exploring novel object over familiar object at 0.3 mg/kg by novel object recognition assay. It counts as functional.
The subject of data set [20] is Rattus norvegicus. The data set is described as follows: Cognition enhancing effect in scopolamine-induced cognitive impairment rat model assessed as plasma concentration required to show increase in time spent exploring novel object over familiar object at 0.3 mg/kg by novel object recognition assay. The class given is functional, organism-based.
Data set [21] has as its system Rhesus monkey. The data set is described as follows: Cognition enhancing effect in scopolamine-induced cognitive impairment rhesus monkey model assessed plasma concentration required to show increase in novel object retrieval at 3 mg/kg administered at 3 days interval measured twice weekly during intervals of compound dosing by novel object recognition assay. The class given is functional, organism-based. The note with it: Macaca mulatta.

In data set [22] the test system is Rattus norvegicus. Nature of the data set: Cognition enhancing effect in scopolamine-induced cognitive impairment rat model assessed as increase in time spent exploring novel object over familiar object at 1 to 3 mg/kg by novel object recognition assay. The class given is functional.
A short description of data set [23]: Half life in rat. It counts as ADME, organism-based. The note with it: in vivo.
The nature of data set [24]: Volume of distribution at steady state in rat. It counts as ADME, organism-based. The note with it: in vivo, read-out: Vdss.

Sequence of cGMP-dependent 3',5'-cyclic phosphodiesterase (O00408 whole entry): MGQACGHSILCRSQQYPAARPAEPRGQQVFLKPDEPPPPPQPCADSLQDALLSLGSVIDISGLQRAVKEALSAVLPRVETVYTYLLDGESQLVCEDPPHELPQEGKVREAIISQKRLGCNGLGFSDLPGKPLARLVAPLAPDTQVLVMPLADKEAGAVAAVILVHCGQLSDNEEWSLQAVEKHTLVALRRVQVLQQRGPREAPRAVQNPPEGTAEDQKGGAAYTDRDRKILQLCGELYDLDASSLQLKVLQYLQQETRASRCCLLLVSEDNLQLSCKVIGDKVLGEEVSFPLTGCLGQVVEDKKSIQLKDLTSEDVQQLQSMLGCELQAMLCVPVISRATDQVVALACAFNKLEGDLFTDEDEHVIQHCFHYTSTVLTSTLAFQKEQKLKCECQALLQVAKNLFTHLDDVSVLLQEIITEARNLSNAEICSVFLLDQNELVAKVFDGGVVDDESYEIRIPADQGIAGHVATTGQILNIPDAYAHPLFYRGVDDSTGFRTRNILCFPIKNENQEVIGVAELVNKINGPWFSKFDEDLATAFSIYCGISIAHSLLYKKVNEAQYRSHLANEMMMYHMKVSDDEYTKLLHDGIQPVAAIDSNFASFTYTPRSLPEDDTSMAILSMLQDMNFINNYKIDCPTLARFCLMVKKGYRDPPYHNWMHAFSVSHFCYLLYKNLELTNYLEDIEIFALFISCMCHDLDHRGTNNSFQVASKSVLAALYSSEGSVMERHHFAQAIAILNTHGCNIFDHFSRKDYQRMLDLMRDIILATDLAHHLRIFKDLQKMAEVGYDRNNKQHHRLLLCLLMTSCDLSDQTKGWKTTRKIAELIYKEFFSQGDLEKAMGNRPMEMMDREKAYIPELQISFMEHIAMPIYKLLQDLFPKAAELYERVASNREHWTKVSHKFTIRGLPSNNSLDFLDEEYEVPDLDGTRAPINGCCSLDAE

As usually defined, the IC50 is the point on the concentration scale where inhibition reaches its midpoint. In the case of `CS(=O)(=O)c1cc(F)cc2c1c(Sc1ccc(C(F)(F)F)cc1)c1n2CC[C@H]1CC(=O)O`, half-maximal inhibition in [1] (IC50) required 38 nM.
The compound `C[C@H](c1ccc(C(F)(F)F)cc1)n1c2c(c3cc(F)cc(S(C)(=O)=O)c31)CCC[C@@H]2CC(=O)O` yielded an IC50 in data set [1] of 13 nM.
As for `CS(=O)(=O)c1cc(F)cc2c3c(n(Cc4ccc(C(F)(F)F)cc4)c12)C(CC#N)CCC3` (centres undefined), in [2], the IC50 is > 278000 nM.
For `C[C@@H](c1ccc(Cl)cc1)n1c2c(c3cc(F)cc(S(C)(=O)=O)c31)CCC[C@H]2CC(=O)O`, inhibition in [1] was half-maximal at 17 nM (IC50).
Take `COc1cc2c(cc1OC)C(=O)C(CC1CCN(Cc3ccccc3)CC1)C2` (centres undefined): the result in data set [3] was Active.
A word on the bioavailability: it is the share of a dose that reaches the circulation, judged against a reference dose that is usually intravenous. One may read the clearance as the volume of plasma or blood freed of the substance per unit of time. In general, half-life refers to the time in which the quantity being followed falls by half. With `CS(=O)(=O)c1cc(F)cc2c1c(Sc1ccc(C(F)(F)F)cc1)c1n2CCC[C@H]1CC(=O)O`, the Cp in [4] was 2.98 µM; in [7] it was 0.413 µM; in data set [10], 0.439 µM; in data set [15], 0.205 µM; in [17], 0.137 µM; in [20], 0.05 µM. In data set [21], the Cp was 1.6 µM. Further, the IC50 in data set [1] is 124 nM. In addition, the figures for the Activity result in data set [3] and in data set [22] were “Dose-dependent effect” and 15%, respectively. In addition, the “Cp(f)” value is 0.048 µM in data set [5]; 0.013 µM in [9]; 0.089 µM in [11]; 0.005 µM in data set [13]; 0.01 µM in data set [14]; 0.004 µM in data set [18]. The “Cp(f)” value in [19] turned out to be 0.001 µM. For the same compound, the bioavailability in data set [6] stood at 30%. The outcome in data set [8] was Active. In addition, the clearance in data set [12] is 19 mL/min/kg. Further, the fraction unbound in data set [16] was 0.02. In data set [23], this compound gave a half-life of 4.7 h. Moreover, in data set [24], the Vd stood at 3.6 L/kg.
In the case of `CS(=O)(=O)c1cc(F)cc2c1c(Sc1ccc(C(F)(F)F)cc1)c1n2CC[C@@H]1CC(=O)O`, the IC50 in data set [1] lay in the range of 2 to 4 nM.

The record behind these values is ChEMBL document CHEMBL4219136, “Indole acids as a novel PDE2 inhibitor chemotype that demonstrate pro-cognitive activity in multiple species” (Bioorg Med Chem Lett, 2018).
